Columns and labels:
Test in all cases: Kinase profiling (radioactive filter binding)
Type in all cases: biochemical
[1] = molecular target: GCK (Homo sapiens, UniProt Q12851); settings: 1 uM compound
Description: (§1) 3A5 and 5E4 were sent to the International Centre for Kinase Profiling at the MRC Protein Phosphorylation and Ubiquitylation Unit for profiling (as described in ref ([17])). Compounds were profiled against 140 kinases using a radioactive ([^33P]ATP) filter binding assay at a concentration of 1 μM. Results were obtained as inhibition of kinase activity and are listed in Supplementary Table 2.

[2] = molecular target: IKKb (Homo sapiens, UniProt O14920); settings: 1 uM compound
Description: as §1

[3] = molecular target: CAMKKb (Homo sapiens, UniProt Q96RR4); settings: 1 uM compound
Description: as §1

[4] = molecular target: IRR (Homo sapiens, UniProt P14616); settings: 1 uM compound
Description: as §1

[5] = molecular target: BRSK2 (Homo sapiens, UniProt Q8IWQ3); settings: 1 uM compound
Description: as §1

[6] = molecular target: TTK (Homo sapiens, UniProt P33981); settings: 1 uM compound
Description: as §1

[7] = molecular target: PINK (Tribolium castaneum, UniProt D6WMX4); settings: 1 uM compound
Description: as §1

[8] = molecular target: PKBb (Homo sapiens, UniProt P31751); settings: 1 uM compound
Description: as §1

[9] = molecular target: JNK1 (Homo sapiens, UniProt P45983); settings: 1 uM compound
Chain of JNK1 (P45983 whole entry): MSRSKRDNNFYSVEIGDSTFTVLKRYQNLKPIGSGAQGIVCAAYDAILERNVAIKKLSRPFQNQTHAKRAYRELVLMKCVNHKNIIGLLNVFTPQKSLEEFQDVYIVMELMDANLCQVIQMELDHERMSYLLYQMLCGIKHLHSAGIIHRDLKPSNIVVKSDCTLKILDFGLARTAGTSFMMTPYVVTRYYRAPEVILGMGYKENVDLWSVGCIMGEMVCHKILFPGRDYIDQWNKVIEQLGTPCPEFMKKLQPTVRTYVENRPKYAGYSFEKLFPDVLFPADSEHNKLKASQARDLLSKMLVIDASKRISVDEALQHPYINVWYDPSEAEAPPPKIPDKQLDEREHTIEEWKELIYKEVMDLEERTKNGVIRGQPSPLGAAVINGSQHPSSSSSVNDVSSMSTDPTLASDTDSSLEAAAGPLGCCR
Description: as §1

[10] = molecular target: ERK2 (Homo sapiens, UniProt P28482); settings: 1 uM compound
Chain of ERK2 (P28482 whole entry): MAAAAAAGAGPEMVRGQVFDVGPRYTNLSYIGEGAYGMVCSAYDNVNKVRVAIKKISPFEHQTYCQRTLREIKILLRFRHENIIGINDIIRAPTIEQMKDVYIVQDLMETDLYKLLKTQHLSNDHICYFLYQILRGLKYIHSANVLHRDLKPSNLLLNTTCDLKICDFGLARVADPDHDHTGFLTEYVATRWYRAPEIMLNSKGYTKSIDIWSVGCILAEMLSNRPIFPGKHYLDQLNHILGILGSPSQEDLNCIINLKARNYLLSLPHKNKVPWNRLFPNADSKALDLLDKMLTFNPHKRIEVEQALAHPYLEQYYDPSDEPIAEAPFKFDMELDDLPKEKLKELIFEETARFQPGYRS
Description: as §1

[11] = molecular target: ULK2 (Homo sapiens, UniProt Q8IYT8); settings: 1 uM compound
Description: as §1

[12] = molecular target: CLK2 (Homo sapiens, UniProt P49760); settings: for CLK2 activity in kinase profiling: 1 uM compound; for inhibition at 1 µM: 1 μM compound, read-out: inhibition of CLK2 in kinase panel
Chain of CLK2 (P49760 whole entry): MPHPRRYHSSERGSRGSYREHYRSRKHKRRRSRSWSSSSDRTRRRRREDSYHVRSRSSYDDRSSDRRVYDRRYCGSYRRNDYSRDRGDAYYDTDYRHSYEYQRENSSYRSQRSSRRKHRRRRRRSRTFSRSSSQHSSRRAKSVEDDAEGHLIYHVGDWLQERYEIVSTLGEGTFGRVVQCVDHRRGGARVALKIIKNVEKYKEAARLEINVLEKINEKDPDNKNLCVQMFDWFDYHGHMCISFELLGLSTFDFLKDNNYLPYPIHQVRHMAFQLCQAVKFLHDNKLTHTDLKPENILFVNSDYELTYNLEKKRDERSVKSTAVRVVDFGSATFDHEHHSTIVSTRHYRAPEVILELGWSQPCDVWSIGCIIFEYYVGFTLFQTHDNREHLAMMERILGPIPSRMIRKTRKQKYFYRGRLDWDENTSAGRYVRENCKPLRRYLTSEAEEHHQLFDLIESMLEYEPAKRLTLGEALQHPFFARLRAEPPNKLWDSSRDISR
Description: as §1

[13] = molecular target: CDK9-Cyclin T1 (Homo sapiens, UniProt P50750); settings: 1 uM compound
Description: as §1

[14] = molecular target: EF2K (Homo sapiens, UniProt O00418); settings: 1 uM compound
Description: as §1

[15] = molecular target: PKA (Homo sapiens, UniProt P17612); settings: 1 uM compound
Description: as §1

[16] = molecular target: DDR2 (Homo sapiens, UniProt Q16832); settings: 1 uM compound
Description: as §1

[17] = molecular target: MINK1 (Homo sapiens, UniProt Q8N4C8); settings: 1 uM compound
Description: as §1

[18] = molecular target: MSK1 (Homo sapiens, UniProt O75582); settings: 1 uM compound
Chain of MSK1 (O75582 whole entry): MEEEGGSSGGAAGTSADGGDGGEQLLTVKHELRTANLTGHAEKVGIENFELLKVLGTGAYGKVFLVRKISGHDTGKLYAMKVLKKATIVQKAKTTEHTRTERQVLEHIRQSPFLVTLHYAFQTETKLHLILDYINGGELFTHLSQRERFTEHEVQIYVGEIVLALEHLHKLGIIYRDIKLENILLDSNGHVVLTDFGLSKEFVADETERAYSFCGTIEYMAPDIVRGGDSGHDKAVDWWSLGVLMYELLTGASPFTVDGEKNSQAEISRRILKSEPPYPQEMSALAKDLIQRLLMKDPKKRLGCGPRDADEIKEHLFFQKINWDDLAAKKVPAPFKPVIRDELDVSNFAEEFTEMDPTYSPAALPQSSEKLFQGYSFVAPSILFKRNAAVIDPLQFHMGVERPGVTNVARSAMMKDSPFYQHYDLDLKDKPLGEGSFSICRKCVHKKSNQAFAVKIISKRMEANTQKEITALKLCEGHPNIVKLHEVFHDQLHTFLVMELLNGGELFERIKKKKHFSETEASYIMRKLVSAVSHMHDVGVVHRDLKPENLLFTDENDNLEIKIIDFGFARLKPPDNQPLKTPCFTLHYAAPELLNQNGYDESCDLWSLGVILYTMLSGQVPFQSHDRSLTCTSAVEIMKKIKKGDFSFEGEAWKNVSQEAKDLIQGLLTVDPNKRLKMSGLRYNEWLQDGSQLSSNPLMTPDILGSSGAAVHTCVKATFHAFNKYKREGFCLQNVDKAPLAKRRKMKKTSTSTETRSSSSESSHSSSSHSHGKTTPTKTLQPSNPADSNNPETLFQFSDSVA
Description: as §1

[19] = molecular target: HIPK3 (Homo sapiens, UniProt Q9H422); settings: 1 uM compound
Chain of HIPK3 (Q9H422 whole entry): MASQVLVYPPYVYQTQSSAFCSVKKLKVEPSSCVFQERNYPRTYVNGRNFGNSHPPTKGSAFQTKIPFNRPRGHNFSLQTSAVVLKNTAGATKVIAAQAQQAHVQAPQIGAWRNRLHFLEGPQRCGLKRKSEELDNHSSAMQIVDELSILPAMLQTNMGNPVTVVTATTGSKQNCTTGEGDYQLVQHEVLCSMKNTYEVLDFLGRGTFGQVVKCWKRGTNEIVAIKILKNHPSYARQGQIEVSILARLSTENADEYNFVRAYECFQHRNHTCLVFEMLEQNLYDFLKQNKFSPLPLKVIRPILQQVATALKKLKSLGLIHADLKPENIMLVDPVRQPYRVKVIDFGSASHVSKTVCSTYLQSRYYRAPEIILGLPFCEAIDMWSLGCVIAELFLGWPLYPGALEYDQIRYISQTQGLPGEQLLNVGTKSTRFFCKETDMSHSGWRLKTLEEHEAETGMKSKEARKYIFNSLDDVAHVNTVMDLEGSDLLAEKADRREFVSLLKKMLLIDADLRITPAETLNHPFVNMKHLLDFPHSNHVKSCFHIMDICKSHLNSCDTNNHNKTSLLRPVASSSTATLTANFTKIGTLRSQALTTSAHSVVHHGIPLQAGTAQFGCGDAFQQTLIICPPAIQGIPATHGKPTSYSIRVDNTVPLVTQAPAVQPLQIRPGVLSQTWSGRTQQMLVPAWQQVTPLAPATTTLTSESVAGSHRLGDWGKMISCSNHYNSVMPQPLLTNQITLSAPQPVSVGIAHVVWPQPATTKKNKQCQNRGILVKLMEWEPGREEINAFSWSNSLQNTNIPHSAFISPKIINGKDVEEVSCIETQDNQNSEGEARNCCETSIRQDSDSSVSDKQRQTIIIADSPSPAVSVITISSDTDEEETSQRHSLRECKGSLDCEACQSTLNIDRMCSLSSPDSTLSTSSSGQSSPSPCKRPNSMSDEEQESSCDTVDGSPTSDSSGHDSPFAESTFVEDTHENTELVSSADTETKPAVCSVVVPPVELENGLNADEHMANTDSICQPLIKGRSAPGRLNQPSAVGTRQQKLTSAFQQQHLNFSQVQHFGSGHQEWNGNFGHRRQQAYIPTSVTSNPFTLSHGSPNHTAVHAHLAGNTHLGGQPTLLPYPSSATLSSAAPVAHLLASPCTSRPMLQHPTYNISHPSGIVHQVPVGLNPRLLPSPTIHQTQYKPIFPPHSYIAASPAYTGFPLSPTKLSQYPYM
Description: as §1

[20] = molecular target: TAO1 (Homo sapiens, UniProt Q7L7X3); settings: 1 uM compound
Description: as §1

[21] = molecular target: EPH-A2 (Homo sapiens, UniProt P29317); settings: 1 uM compound
Description: as §1

[22] = molecular target: BRSK1 (Homo sapiens, UniProt Q8TDC3); settings: 1 uM compound
Chain of BRSK1 (Q8TDC3 whole entry): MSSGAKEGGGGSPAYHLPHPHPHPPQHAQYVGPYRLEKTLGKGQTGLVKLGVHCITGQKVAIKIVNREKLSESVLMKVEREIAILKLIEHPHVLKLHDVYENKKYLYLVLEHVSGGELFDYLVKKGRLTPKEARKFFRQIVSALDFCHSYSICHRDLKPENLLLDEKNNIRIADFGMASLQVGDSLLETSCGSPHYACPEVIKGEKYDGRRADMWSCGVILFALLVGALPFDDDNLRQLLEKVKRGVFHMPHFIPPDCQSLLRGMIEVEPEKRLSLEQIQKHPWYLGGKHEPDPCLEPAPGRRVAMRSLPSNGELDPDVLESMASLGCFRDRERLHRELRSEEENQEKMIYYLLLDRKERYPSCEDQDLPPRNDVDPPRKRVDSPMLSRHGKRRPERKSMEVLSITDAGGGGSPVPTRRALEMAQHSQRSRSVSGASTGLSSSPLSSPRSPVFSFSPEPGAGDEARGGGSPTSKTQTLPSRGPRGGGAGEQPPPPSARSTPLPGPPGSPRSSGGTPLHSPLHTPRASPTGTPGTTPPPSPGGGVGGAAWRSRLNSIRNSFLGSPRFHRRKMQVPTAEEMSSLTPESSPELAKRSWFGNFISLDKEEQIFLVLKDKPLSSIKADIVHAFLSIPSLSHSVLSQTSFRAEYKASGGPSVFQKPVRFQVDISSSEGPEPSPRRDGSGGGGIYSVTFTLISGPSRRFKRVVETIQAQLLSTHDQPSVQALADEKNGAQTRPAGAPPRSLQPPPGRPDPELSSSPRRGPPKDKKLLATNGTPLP
Description: as §1

[23] = molecular target: JAK2 (Homo sapiens, UniProt O60674); settings: 1 uM compound
Description: as §1

[24] = molecular target: MST3 (Homo sapiens, UniProt Q9Y6E0); settings: 1 uM compound
Description: as §1

[25] = molecular target: TIE2 (Homo sapiens, UniProt Q02763); settings: 1 uM compound
Description: as §1

[26] = molecular target: NUAK1 (Homo sapiens, UniProt O60285); settings: 1 uM compound
Description: as §1

[27] = molecular target: JNK3 (Homo sapiens, UniProt P53779); settings: 1 uM compound
Description: as §1

[28] = molecular target: ABL (Homo sapiens, UniProt P00519); settings: 1 uM compound
Description: as §1

[29] = molecular target: IRAK4 (Homo sapiens, UniProt Q9NWZ3); settings: 1 uM compound
Description: as §1

[30] = molecular target: EPH-B4 (Homo sapiens, UniProt P54760); settings: 1 uM compound
Description: as §1

[31] = molecular target: ERK1 (Homo sapiens, UniProt P27361); settings: 1 uM compound
Description: as §1

[32] = molecular target: PDK1 (Homo sapiens, UniProt O15530); settings: 1 uM compound
Description: as §1

[33] = molecular target: NEK6 (Homo sapiens, UniProt Q9HC98); settings: 1 uM compound
Description: as §1

[34] = molecular target: CK1γ2 (Homo sapiens, UniProt P78368); settings: 1 uM compound
Chain of CK1γ2 (P78368 whole entry): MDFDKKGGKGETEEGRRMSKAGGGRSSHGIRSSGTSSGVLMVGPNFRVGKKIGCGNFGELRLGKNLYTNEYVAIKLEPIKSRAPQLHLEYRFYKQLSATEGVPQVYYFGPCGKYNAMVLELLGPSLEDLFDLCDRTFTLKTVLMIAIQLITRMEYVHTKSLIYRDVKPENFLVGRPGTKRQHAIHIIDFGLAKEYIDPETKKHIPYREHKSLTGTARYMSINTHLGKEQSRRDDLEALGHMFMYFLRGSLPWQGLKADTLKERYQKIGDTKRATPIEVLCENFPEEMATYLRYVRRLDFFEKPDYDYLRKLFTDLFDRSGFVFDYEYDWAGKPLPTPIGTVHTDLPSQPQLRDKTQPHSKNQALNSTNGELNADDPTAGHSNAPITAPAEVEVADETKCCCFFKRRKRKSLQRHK
Description: as §1

[35] = molecular target: SGK1 (Homo sapiens, UniProt O00141); settings: 1 uM compound
Description: as §1

[36] = molecular target: EIF2AK3 (Homo sapiens, UniProt Q9NZJ5); settings: 1 uM compound
Description: as §1

[37] = molecular target: MEKK1 (Homo sapiens, UniProt Q13233); settings: 1 uM compound
Description: as §1

[38] = molecular target: CAMK1 (Homo sapiens, UniProt Q14012); settings: 1 uM compound
Description: as §1

[39] = molecular target: Aurora B (Homo sapiens, UniProt Q96GD4); settings: 1 uM compound
Chain of Aurora B (Q96GD4 whole entry): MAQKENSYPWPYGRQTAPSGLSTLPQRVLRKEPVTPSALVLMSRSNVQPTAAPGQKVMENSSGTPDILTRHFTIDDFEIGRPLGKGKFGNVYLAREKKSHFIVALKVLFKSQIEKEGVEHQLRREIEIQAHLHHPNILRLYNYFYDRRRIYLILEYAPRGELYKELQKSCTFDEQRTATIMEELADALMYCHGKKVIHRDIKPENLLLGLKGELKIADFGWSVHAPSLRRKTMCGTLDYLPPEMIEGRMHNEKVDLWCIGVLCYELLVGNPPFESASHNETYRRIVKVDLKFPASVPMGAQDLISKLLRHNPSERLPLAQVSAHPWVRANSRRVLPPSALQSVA
Description: as §1

[40] = molecular target: S6K1 (Homo sapiens, UniProt P23443); settings: 1 uM compound
Description: as §1

[41] = molecular target: MARK1 (Homo sapiens, UniProt Q9P0L2); settings: 1 uM compound
Description: as §1

[42] = molecular target: MKK6 (Homo sapiens, UniProt P52564); settings: 1 uM compound
Description: as §1

Which results are given for `Cc1nc2ccc3sc(NC(=O)c4ccc5ncsc5c4)nc3c2s1` [3A5, N-(2-methyl[1,3]thiazolo[5,4-e][1,3]benzothiazol-7-yl)-1,3-benzothiazole-6-carboxamide]?
GCK activity in kinase profiling [1]: 90; IKKb activity in kinase profiling [2]: 85; CAMKKb activity in kinase profiling [3]: 98; IRR activity in kinase profiling [4]: 87; BRSK2 activity in kinase profiling [5]: 88; TTK activity in kinase profiling [6]: 56; PINK activity in kinase profiling [7]: 115; activity at 1 µM [8]: 125%; JNK1 activity in kinase profiling [9]: 67; ERK2 activity in kinase profiling [10]: 109; ULK2 activity in kinase profiling [11]: 92; CLK2 activity in kinase profiling [12]: 3.39; inhibition at 1 µM [12]: 97%; CDK9-Cyclin T1 activity in kinase profiling [13]: 87; EF2K activity in kinase profiling [14]: 71; PKA activity in kinase profiling [15]: 98; DDR2 activity in kinase profiling [16]: 88; MINK1 activity in kinase profiling [17]: 89; MSK1 activity in kinase profiling [18]: 86; HIPK3 activity in kinase profiling [19]: 100; TAO1 activity in kinase profiling [20]: 94; EPH-A2 activity in kinase profiling [21]: 134; BRSK1 activity in kinase profiling [22]: 101; JAK2 activity in kinase profiling [23]: 112; MST3 activity in kinase profiling [24]: 100; TIE2 activity in kinase profiling [25]: 98; NUAK1 activity in kinase profiling [26]: 73; JNK3 activity in kinase profiling [27]: 107; ABL activity in kinase profiling [28]: 102; IRAK4 activity in kinase profiling [29]: 46; EPH-B4 activity in kinase profiling [30]: 103; ERK1 activity in kinase profiling [31]: 102; PDK1 activity in kinase profiling [32]: 93; NEK6 activity in kinase profiling [33]: 104; CK1γ2 activity in kinase profiling [34]: 22; SGK1 activity in kinase profiling [35]: 85; EIF2AK3 activity in kinase profiling [36]: 119; MEKK1 activity in kinase profiling [37]: 79; CAMK1 activity in kinase profiling [38]: 85; Aurora B activity in kinase profiling [39]: 69; S6K1 activity in kinase profiling [40]: 72; MARK1 activity in kinase profiling [41]: 103; MKK6 activity in kinase profiling [42]: 119

Which “GCK activity in kinase profiling” value [1] does the source give for `CSc1nc2ccc3nc(NC(=O)c4ccco4)sc3c2s1` [5E4, N-[7-(methylsulfanyl)[1,3]thiazolo[4,5-g][1,3]benzothiazol-2-yl]-2-furamide] here?
The value was 24.

What about the “IKKb activity in kinase profiling” value [2] of the same molecule?
The value was 90.

And the “CAMKKb activity in kinase profiling” value [3]?
The value was 91.

What about the “IRR activity in kinase profiling” value [4] of the same molecule?
The value was 92.

And the “BRSK2 activity in kinase profiling” value [5]?
Its value is 83.

And the “TTK activity in kinase profiling” value [6]?
The value was 60.

What about the “PINK activity in kinase profiling” value [7] of the same molecule?
Its value is 118.

And the activity at 1 µM [8]?
The activity at 1 µM was 121%.

And the “JNK1 activity in kinase profiling” value [9]?
Its value is 91.

What about the “ERK2 activity in kinase profiling” value [10] of the same molecule?
The value was 112.

And the “ULK2 activity in kinase profiling” value [11]?
The value was 81.

And the “CLK2 activity in kinase profiling” value [12]?
Its value is 3.

And the inhibition at 1 µM [12]?
Its inhibition at 1 µM is 97%.

And the “CDK9-Cyclin T1 activity in kinase profiling” value [13]?
The value was 88.

What about the “EF2K activity in kinase profiling” value [14] of the same molecule?
The value was 79.

And the “PKA activity in kinase profiling” value [15]?
The value was 97.

And the “DDR2 activity in kinase profiling” value [16]?
The value was 95.

What about the “MINK1 activity in kinase profiling” value [17] of the same molecule?
Its value is 8.

What about the “MSK1 activity in kinase profiling” value [18] of the same molecule?
The value was 109.

And the “HIPK3 activity in kinase profiling” value [19]?
The value was 50.

And the “TAO1 activity in kinase profiling” value [20]?
Its value is 99.

And the “EPH-A2 activity in kinase profiling” value [21]?
The value was 162.

And the “BRSK1 activity in kinase profiling” value [22]?
Its value is 86.

What about the “JAK2 activity in kinase profiling” value [23] of the same molecule?
Its value is 105.

And the “MST3 activity in kinase profiling” value [24]?
The value was 99.

And the “TIE2 activity in kinase profiling” value [25]?
The value was 89.

What about the “NUAK1 activity in kinase profiling” value [26] of the same molecule?
Its value is 82.

What about the “JNK3 activity in kinase profiling” value [27] of the same molecule?
The value was 123.

What about the “ABL activity in kinase profiling” value [28] of the same molecule?
The value was 61.

What about the “IRAK4 activity in kinase profiling” value [29] of the same molecule?
Its value is 50.

What about the “EPH-B4 activity in kinase profiling” value [30] of the same molecule?
The value was 84.

What about the “ERK1 activity in kinase profiling” value [31] of the same molecule?
Its value is 104.

And the “PDK1 activity in kinase profiling” value [32]?
The value was 88.

What about the “NEK6 activity in kinase profiling” value [33] of the same molecule?
The value was 91.

What about the “CK1γ2 activity in kinase profiling” value [34] of the same molecule?
The value was 88.

And the “SGK1 activity in kinase profiling” value [35]?
Its value is 88.

And the “EIF2AK3 activity in kinase profiling” value [36]?
Its value is 84.

And the “MEKK1 activity in kinase profiling” value [37]?
Its value is 108.

What about the “CAMK1 activity in kinase profiling” value [38] of the same molecule?
Its value is 106.

And the “Aurora B activity in kinase profiling” value [39]?
The value was 64.

And the “S6K1 activity in kinase profiling” value [40]?
The value was 80.

What about the “MARK1 activity in kinase profiling” value [41] of the same molecule?
The value was 107.

What about the “MKK6 activity in kinase profiling” value [42] of the same molecule?
Its value is 101.

From PMC4730229, “Benzobisthiazoles Represent a Novel Scaffold for Kinase Inhibitors of CLK Family Members” (Biochemistry, 2015)
